Test results reported in patent US20210260101A1, “POTENTIATED ANTIBIOTIC COMPOSITIONS AND METHODS OF USE FOR TREATING BACTERIAL INFECTIONS AND BIOFILMS” (priority 2018, published 2021).
Values joined by “and” are separate entries in the source; they are usually repeats but may differ in a detail not shown here. Identical values can stand only once. Like-named read-outs stand apart in the source and are kept apart here. Marks after values point to notes of the source that are not given here.

Legend:
[1] = tested on: MRSA clinical isolate OU11; test: Clinical laboratory susceptibility (MicroScan), MRSA isolate 11; format: cell-based, S. aureus; conditions: MicroScan PC33 gram positive panel
MRSA USA300 (BAA-1717) = test: Checkerboard assay (Example 3), MRSA USA300; format: cell-based, Staphylococcus aureus; conditions: for MIC: MRSA USA300, agent alone
Description: (§1) Cells were grown at 37° C. The change in OD600 (optical density at 600 nm) was measured and recorded after 24 hr of treatment. Each checkerboard trial was done in triplicate using sterile Greiner CellStar™ flat bottom polystyrene plates, catalog #655180.

[2] = tested on: S. epidermidis ATCC 35984 (MRSE 35984); test: MIC/potentiation against MRSE 35984 (Example 1); format: cell-based, Staphylococcus epidermidis
MRSA USA 300 ATCC 1717 = test: Checkerboard MIC assay against MRSA USA300 (Example 1); format: cell-based, Staphylococcus aureus; conditions: for MIC: Staphylococcus aureus
MRSA MW2 = test: Checkerboard assay (Example 3), MRSA MW2; format: cell-based, Staphylococcus aureus; conditions: for MIC: MRSA MW2, agent alone
Description: as §1

[3] = tested on: S. epidermidis ATCC 12228 (MSSE 12228); test: MIC/potentiation against MSSE 12228; format: cell-based, Staphylococcus epidermidis
MRSE 35984 = test: Checkerboard assay (Example 3), MRSE 35984; format: cell-based, Staphylococcus epidermidis
Description: as §1

MRSE 35984 biofilms = test: Biofilm kill curve; format: cell-based, Staphylococcus epidermidis; conditions: 64 μg/mL BPEI, 16 μg/mL oxacillin, or both
Description: Biofilm was grown in an MBEC inoculator plate for 24 hours with shaking to facilitate biofilm formation. At time zero, the prongs were sonicated in PBS for 30 minutes and then plated on agar for CFU counting. […] The prongs on the MBEC inoculator were washed in PBS for 10 seconds and then transferred into the new treated base plate and incubated. Agar CFU plating was performed at 2 hours, 4 hours, 8 hours, and 24 hours for each treatment group. All the agar plating was incubated at 35° C. and counted for colony forming units the next day. Each trial was done in duplicate.

[4] = tested on: MRSA clinical isolate OU6; test: Clinical laboratory susceptibility (MicroScan), MRSA isolate 6; format: cell-based, S. aureus; conditions: MicroScan PC33 gram positive panel
MRSE 35984 biofilm = test: MBEC assay (challenge plate MIC, recovery plate MBEC), MRSE 35984; format: cell-based, Staphylococcus epidermidis
Description: A sub-culture of MRSE was grown from the cryogenic stock on an agar plate overnight at 35° C. The MBEC plate was inoculated with 150 μL of TSB/well plus 1 μL of a stock culture made from 1 colony/mL of MRSE in TSB. The MBEC inoculator plate was sealed with Parafilm and incubated for 24 hours at 35° C. with 100 rpm shaking to facilitate biofilm formation on the prongs. Following biofilm formation, the lid of the MBEC inoculator was removed and placed in a rinse plate containing 200 μL of sterile PBS for 10 sec. Biofilm growth check (BGC) was performed by breaking a few prongs off using sterile pliers, submerging them in 1 mL PBS, and sonicating them on high for 30 minutes to dislodge the biofilm. After sonication, the biofilm solution was serial-diluted and spot-plated on agar plates for CFU counting to determine the biofilm density on the prongs.
A challenge plate was made in a new pre-sterilized 96-well plate in a checkerboard-assay pattern to test the synergistic activity of BPEI+antibiotic combinations. Antimicrobial solutions were serial-diluted and added to the 96-well plate, which contained 200 μL of cation-adjusted Mueller-Hinton broth (MHB) per well. Following the rinsing step and biofilm growth check, the MBEC inoculator lid was immediately transferred into the prepared antimicrobial challenge plate and incubated at 35° C. for 20-24 hours. After the challenge period, the MBEC inoculator lid was transferred into a recovery plate containing 200 μL of MHB per well, sonicated on high for 30 minutes to dislodge the biofilm and then incubated at 35° C. for 20-24 hour to allow the surviving bacterial cells to grow. After incubation, the OD600 (optical density at 600 nm) of the recovery plate was measured using a Tecan Infinite M20 plate reader to determine the MBEC of the antimicrobial compounds tested. A change in OD600 greater than 0.05 indicated positive growth. Likewise, the OD600 for the base of the challenge plate was measured […] to determine the MICs of the antimicrobial compounds.

Cc1onc(-c2ccccc2)c1C(=O)N[C@@H]1C(=O)N2[C@@H]1SC(C)(C)[C@@H]2C(=O)O [oxacillin]
MIC [1]: > 2 µg/mL | OXA MIC in combination with 600 Da BPEI (MRSA USA300 (BAA-1717); BPEI amount in same cell): 4 µg/mL | MIC (MRSA USA300 (BAA-1717); listed as OXA): 32 µg/mL and 16 µg/mL | OXA MIC in combination with PEG-BPEI (MRSA USA300 (BAA-1717); PEG-BPEI amount in same cell): 2 µg/mL | MIC (MRSA USA300 (BAA-1717); Staphylococcus aureus, read-out: MIC): 32 µg/mL | MIC, antibiotic + 2 μg/ml (3.375 μM) 600-Da BPEI [2]: 2 µg/mL | MIC, antibiotic + 4 μg/ml (6.75 μM) 600-Da BPEI [2]: 0.25 µg/mL | fold reduction of oxacillin MIC ([2]; adding 6.75 μM of BPEI600): 256 fold | MIC of antibiotic only ([2]; agent alone): 64 µg/mL | MIC with 4 μg/ml (6.75 μM) 600-Da BPEI (MRSA USA 300 ATCC 1717; MRSA USA300): 1 µg/mL | MIC, antibiotic + 16 μg/ml (17 μM) PEG350BPEI600 (MRSA USA 300 ATCC 1717; MRSA USA300): 0.5 µg/mL | MIC, antibiotic + 64 μg/ml (40 μM) PEG1000BPEI600 (MRSA USA 300 ATCC 1717; MRSA USA300): 0.5 µg/mL | MIC (MRSA USA 300 ATCC 1717; MRSA USA300, agent alone, read-out: MIC of antibiotic only): 16 µg/mL | MIC (MRSA USA 300 ATCC 1717; MRSA USA300, read-out: oxacillin MIC with 16 μg/mL of PEG350BPEI600 (17 μM)): 0.5 µg/mL | effect of 50% FBS on oxacillin MIC (MRSA USA 300 ATCC 1717; potentiation in fetal bovine serum vs CAMHB without FBS): does not change | fold reduction of oxacillin MIC (MRSA USA 300 ATCC 1717; with BPEI600, MRSA USA300): 2 fold | OXA MIC in combination with 600 Da BPEI (MRSA MW2; BPEI amount in same cell): 2 µg/mL | MIC (MRSA MW2; listed as OXA): 32 µg/mL and 16 µg/mL | OXA MIC in combination with PEG-BPEI (MRSA MW2; PEG-BPEI amount in same cell): 4 µg/mL | MIC (MRSA MW2; Staphylococcus aureus, MRSA, read-out: MIC): 32 µg/mL | MIC, antibiotic + 2 μg/ml (3.375 μM) 600-Da BPEI [3]: 0.1 µg/mL | MIC, antibiotic + 4 μg/ml (6.75 μM) 600-Da BPEI [3]: 0.1 µg/mL | MIC of antibiotic only ([3]; agent alone): 0.1 µg/mL | OXA MIC in combination with 600 Da BPEI (MRSE 35984; BPEI amount in same cell): 8 µg/mL | MIC (MRSE 35984; MRSE 35984, agent alone): 32 µg/mL | MIC (MRSE 35984; MRSE 35984, agent alone, listed as OXA): 32 µg/mL and 64 µg/mL | OXA MIC in combination with PEG-BPEI (MRSE 35984; PEG-BPEI amount in same cell): 8 µg/mL | MIC (MRSE 35984; Staphylococcus epidermidis, MRSE, MRSE 35984, agent alone, read-out: MIC): 64 µg/mL | MIC (MRSE 35984; Staphylococcus epidermidis, MRSE, read-out: oxacillin MIC with 6.67 μM BPEI600, MRSE planktonic cells): 4 µg/mL | MIC (MRSE 35984; Staphylococcus epidermidis, MRSE, read-out: oxacillin MIC with 33.37 μM of PEG350-BPEI600, MRSE planktonic cells): 4 µg/mL | biofilm cell density at 24 hours (MRSE 35984 biofilms): ~10^3 CFU/mL | MIC [4]: > 2 µg/mL | MBEC, antibiotic + 4 μg/ml (6.75 μM) 600-Da BPEI (MRSE 35984 biofilm; MRSE 35984 biofilm): 8* μg/ml | oxacillin MBEC with 8 μg/mL of BPEI (MRSE 35984 biofilm; MRSE 35984 biofilm): 32 µg/mL | oxacillin MBEC with 64 μg/mL of BPEI (MRSE 35984 biofilm; MRSE 35984 biofilm): 8 µg/mL | oxacillin MBEC in the presence of 13 μM of BPEI600 (MRSE 35984 biofilm; MRSE biofilm): 16 µg/mL | MIC (MRSE 35984 biofilm; Staphylococcus epidermidis, MRSE 35984 planktonic, agent alone): 16 µg/mL
